Measurements taken from patent US20260276634A1, “METHOD FOR DETERMINING INTESTINAL PERMEABILITY” (BIOMEDAL, SL, priority 2023, published 2026).

Conditions: human, in vivo
Description: Specifically, subjects (n=15) received 8 g of gluten after at least 8 hours of fasting, following a gluten-free diet for at least 36 hours in individuals without diagnosed celiac disease. The gluten consisted of gluten powder with flavorings (sweeteners and food colorings) contained in single-use heat-sealed sachets. At the same time, volunteers took 1 g of mannitol and 10 g of lactulose. Subsequently, the various urines were collected in separate containers, to be able to perform individualized measurements of the concentration in each void, as well as the total volume of the urines. The amount of gluten peptides present in urine excreted for 15 hours following gluten intake was determined using the iVYCHECK urine product and a calibrated lateral flow strip reader iVYCHECK Reader (Biomedal, Spain). […]
In this example conducted with 15 volunteers without symptoms of diagnosed digestive disease, basal urine is analyzed. […] The concentrations of GIP in the excreted urines were measured, both by ELISA and LFIA between 0-6 h after intake and between 2-15 h after intake individually. The GIP concentration of each urine of each volunteer (FIG. 4) and lactulose (FIG. 5) were measured, and subsequently, the % excreted relative to the ingested GIP and the lactulose/mannitol ratio (FIG. 6) were calculated. The correlation between lactulose: mannitol and GIP was determined. […]

| time over which lactulose excretion occurs | share of detectable gluten excreted in the first 9 to 15 hours | Molecule |
| --- | --- | --- |
| > 15 h | – | OC[C@H]1O[C@@H](O[C@@H]2[C@@H](CO)OC(O)(CO)[C@H]2O)[C@H](O)[C@@H](O)[C@H]1O (mixture of isomers) [lactulose] |
| – | > 80% | gluten |
